In patent US20070203134A1, “Benzimidazole Acetonitriles” (APPLIED RESEARCH SYSTEMS ARS HOLDING N.V., priority 2004, published 2007):

Key:
db/db mice = test: Experimental model of type II diabetes (oral postprandial glycemia in db/db mice); format: in vivo; details: 50 mg/kg per os, 4 hrs after drug administration, compared to vehicle treated Group 1
Procedure: b) In Vivo Assay: Experimental Model of Type II Diabetes (oral Postprandial Glycemia in db/db Mice)
The following assay aims at determining the anti-diabetic effect of the test compounds of formula (I) in a model of postprandial glycemia in db/db mice, in vivo.
The assay was performed as follows:
A total of 24 db/db mice (about 8-9 weeks; obtained from IFFACREDO, l'Arbreste, France) were fasted during 20 hours.
2 groups, each consisting of 6 animals were formed: • Group 1: The animals were administered (per os) a dose of 10 mg/kg of vehicle. • Group 2: The animals were administered per os) a dose of 50 mg/kg of the test compound according to formula (D.
After oral administration of the compounds of formula (I) solubilized or suspended in CarboxyMethylCellulose (0.5%), Tween 20 (0.25%) and water as vehicle, the animals had access to commercial food (D04, UAR, Villemoisson/Orge, France) ad libitum. The diabetic state of the mice was verified by determining the blood glucose level before drug administration. Blood glucose and serum insulin levels were then determined 4 hrs after drug administration.
The determination of the blood glucose level was performed using a glucometer (Precision Q.I.D., Medisense, Abbot, ref. 212.62.31). […]
Changes in blood glucose and serum insulin of drug treated mice were expressed as a percentage of control (group 1: vehicle treated mice).

human GSK3 beta = human GSK3 beta (Homo sapiens, UniProt P49841); test: GSK3β in vitro kinase assay (33P-ATP phosphorylation of phospho GS2 peptide); format: biochemical; details: in vitro potency, read-out: IC50 (μM) GSK3beta
Procedure: GSK3β Assay (see Bioorg. Med. Chem. Lett by Naerum et al. 12 p. 1525-1528 (2002))
In a final reaction volume of 25 μl, GSK3β (h) (5-10 mU) is incubated with 8 mM MOPS pH 7.0, 0.2 mM EDTA, 20 μM […](p)EDEEE (being the GSK3 substrate; a phospho GS2 peptide), 10 mM Mg Acetate and [γ-^33P-ATP] (Specific activity approx. 500 cpm/pmol, concentration as required). The reaction is initiated by the addition of Mg^2+ [γ-^33P-ATP]. After incubation for 40 minutes at room temperature, the reaction is stopped by the addition of 5 μl of a 3% phosphoric acid solution. 10 μl of the reaction is then spotted onto a P30 filtermat and washed three times for 5 minutes in 50 mM phosphoric acid and once in methanol prior to drying and the degree of phosphorylation of the substrate is determined by scintillation counting.

human GSK3 beta, sequence (P49841 whole entry): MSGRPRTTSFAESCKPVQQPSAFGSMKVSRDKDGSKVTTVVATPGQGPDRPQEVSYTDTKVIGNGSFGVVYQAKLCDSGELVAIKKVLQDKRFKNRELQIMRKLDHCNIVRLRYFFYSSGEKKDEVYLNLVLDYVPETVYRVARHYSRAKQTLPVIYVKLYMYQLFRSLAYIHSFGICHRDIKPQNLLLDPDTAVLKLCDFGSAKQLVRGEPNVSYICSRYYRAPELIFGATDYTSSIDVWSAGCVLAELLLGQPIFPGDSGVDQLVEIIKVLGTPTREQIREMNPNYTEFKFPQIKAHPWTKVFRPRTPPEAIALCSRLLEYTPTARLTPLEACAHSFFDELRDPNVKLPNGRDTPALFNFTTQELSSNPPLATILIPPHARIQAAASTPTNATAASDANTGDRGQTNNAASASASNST

SMILES | IC50 (human GSK3 beta) | blood glucose level reduced (db/db mice) | insulin level reduced (db/db mice; serum insulin)
CCN1/C(=C(\C#N)c2nc(NC3CCC3)ncc2C)Nc2ccccc21 [Example 3] | – | about 28% | about 58%
CCN1/C(=C(\C#N)c2nc(NC(=O)CCCNC(=O)OC(C)(C)C)ncc2C)Nc2ccccc21 [Example 73, tert-butyl[4-({4-[(Z)-cyano(1-ethyl-1,3-dihydro-2H-benzimidazol-2-ylidene)methyl]-5-methylpyrimidin-2-yl}amino)-4oxobutyl]carbamate] | < 10 µM | – | –
CCN1/C(=C(\C#N)c2nc(NC(=O)Cc3ccccc3OC)ncc2C)Nc2ccccc21 [Example 79, N-{4-[(Z)-cyano(1-ethyl-1,3-dihydro-2H-benzimidazol-2-ylidene)methyl]-5-methylpyrimidin-2-yl}-2-(2-methoxyphenyl)acetamide] | < 10 µM | – | –
CCN1/C(=C(\C#N)c2nc(NC(=O)C3CN(C(=O)OC(C)(C)C)CCO3)ncc2C)Nc2ccccc21 (stereo not drawn) [Example 84, tert-butyl 2-[({4-[(Z)-cyano(1-ethyl-1,3-dihydro-2H-benzimidazol-2-ylidene)methyl]-5-methylpyrimidin-2-yl}amino)carbonyl]morpholine-4-carboxylate] | < 10 µM | – | –

Now from value to compound, other results behind:

IC50 (human GSK3 beta) | SMILES | blood glucose level reduced (db/db mice) | insulin level reduced (db/db mice; serum insulin)
< 10 µM | CCN1/C(=C(\C#N)c2nc(NC3CCCCCC3)ncc2C)Nc2ccccc21 [Example 12, (2Z)-[2-(cycloheptylamino)-5-methylpyrimidin-4-yl](1-ethyl-1,3-dihydro-2H-benzimidazol-2-ylidene)acetonitrile] | – | –
< 10 µM | N#C/C(=C1/Nc2ccccc2N1C1CCC1)c1ccnc(NCCCN2CCCC2=O)n1 [Example 15, (2Z)-(1-cyclobutyl-1,3-dihydro-2H-benzimidazol-2-ylidene)(2-{[3-(2-oxopyrrolidin-1-yl)propyl]amino}pyrimidin-4-yl)acetonitrile] | – | –
< 10 µM | Cc1cnc(NC2CCCC2)nc1C(C#N)=C1Nc2ccccc2N1 [Example 28, [2-(cyclopentylamino)-5-methylpyrimidin-4yl](1,3-dihydro-2H-benzimidazol-2-ylidene)acetonitrile] | – | –
< 10 µM | CCN1/C(=C(\C#N)c2cc(NCCc3cccnc3)ncn2)Nc2ccccc21 [Example 46] | – | –
